Structures are written as SMILES. Where “and” joins values, the source holds several entries; their conditions need not be identical. Equal values may be shown once.

In this assay the target is Replicase polyprotein 1ab (Severe acute respiratory syndrome coronavirus 2, UniProt P0DTD1). The assay is described as follows: Functional biochemical assay to identify treatments for viral infectious disease that targets SARS-COV-2 nsp3 macrodomain, whereby the mechanism of action displaces an ADP-Ribose modified peptide from the binding site. Utilizing a time-resolved fluorescence method to measure binding by reading the emitted fluorescence intensity in two wavelengths.
With `CC(C)[C@H](Nc1ncnc2[nH]ccc12)C(=O)O`, the IC50 (commonly the midpoint of a concentration-inhibition curve) was 34.1 µM and 33.8 µM.

Regarding `CNC(=O)c1cc2c(N[C@@H](c3ccc4c(c3)OCCO4)C(C)C)ncnc2[nH]1`, the IC50 is 0.45 µM and 0.366 µM.

With `CC(C)[C@@H](Nc1ncnc2[nH]c(-c3cnn(CC(N)=O)c3)cc12)c1ccc2c(c1)OCCO2`, the IC50 is 0.383 µM and 0.361 µM and 0.247 µM and 0.258 µM.

Consider `COC(=O)c1c[nH]c(-c2cc(N[C@@H](c3ccc4c(c3)OCCO4)C(C)C)ncn2)c1`, for which the IC50 is over 99.5 µM.

As for `CC(C)C[C@@H](Nc1ncnc2[nH]ccc12)C(=O)O`, the IC50 was over 99.5 µM.

As to `CC(C)[C@@H](Nc1ncnc2[nH]ccc12)c1ccc2c(c1)OCC(=O)N2`, the IC50 is 27.2 µM and 24.2 µM.

On to `CC(C)(C)[C@@H](Nc1ncnc2[nH]ccc12)c1ccc2c(c1)OCCO2`, for which the concentration for half-maximal inhibition (IC50) was 1.23 µM and 1.06 µM.

Take `O=C(O)[C@@H](CC1CCCCC1)Nc1ncnc2[nH]ccc12`: the IC50 was 74.6 µM and 71.4 µM.

`CC(C)[C@@H](Nc1cc(-c2c[nH]cn2)ncn1)c1ccc2c(c1)OCCO2` came in with an IC50 of over 99.5 µM.

Turning to `O=C(O)[C@@H]1C[C@H](F)CN1c1ncnc2[nH]ccc12`, the IC50 was over 99.5 µM.

With `O=C(O)[C@@H](CC1CC1)Nc1ncnc2[nH]ccc12`, the IC50 is over 99.5 µM.

As to `CCC[C@@H](Nc1ncnc2[nH]ccc12)C(=O)O`, the IC50 is over 99.5 µM.

Molecule `COCc1noc(C)c1-c1cc2c(N[C@@H](c3ccc4c(c3)OCCO4)C(C)C)ncnc2[nH]1` gave an IC50 of over 99.5 µM.

As to `CNC(=O)c1c[nH]c2ncnc(N[C@@H](c3ccc4c(c3)OCCO4)C(C)C)c12`, the half-maximal inhibitory concentration (IC50) was 0.728 µM and 0.692 µM.

In the case of `CC(C)[C@@H](Nc1ncnc2[nH]c(-c3cnoc3)cc12)c1ccc2c(c1)OCCO2`, the IC50 is 29.9 µM and > 99.5 µM.

Molecule `CC(C)[C@@H]1C[C@H](Nc2[nH]cnc3nccc2-3)CCO1` registered an IC50 of over 99.5 µM.

The molecule `O=C(O)[C@@H]1C[C@@H]2OCC[C@@H]2N1c1ncnc2[nH]ccc12` yielded a 50% inhibitory concentration (IC50) of over 99.5 µM.

Regarding `COc1ccc(CN(c2ncnc3[nH]ccc23)C(C)C)cc1OC`, the IC50 was over 99.5 µM.

Regarding `O=C(O)[C@@H]1CC2(CCCCC2)CN1c1ncnc2[nH]ccc12`, the 50% inhibitory concentration (IC50) is over 99.5 µM.

As for `CS(=O)(=O)Nc1cccc([C@@H](CC(=O)O)NC(=O)c2ncnc3[nH]ccc23)c1`, the IC50 is 50.4 µM and 38.6 µM and 39.5 µM.

For the molecule `CC(C)[C@@H](Nc1ncnc2[nH]ccc12)c1ccc2c(c1)CCCS2(=O)=O`, the IC50 was 3.01 µM and 2.64 µM.

Turning to `CC(C)[C@@H](Nc1ccc(NC(=O)NC2CC2)cc1)c1ccc2c(c1)OCCO2`, the IC50 was over 99.5 µM.

For the molecule `CC(C)[C@@H](Nc1ncnc2[nH]cc(C(N)=O)c12)c1ccc2c(c1)OCCO2`, the IC50 was 0.786 µM and 0.865 µM.

For the molecule `CN1CC[C@@H]1[C@@H](Nc1ncnc2[nH]ccc12)c1ccc2c(c1)OCCO2`, the IC50 was > 99.5 µM and 66 µM.

Take `CO[C@H]1C[C@@H](C(=O)O)N(c2ncnc3[nH]ccc23)C1`: the IC50 was 79.4 µM and 83.6 µM.

As to `CC(C)[C@@H](Nc1ncnc2[nH]ccc12)c1cnn(C)c1`, the IC50 is 3.93 µM and 3.17 µM.

As to `Cc1nnc(Nc2ccc(C(=O)N[C@@H]3c4cccc(O)c4C[C@H]3C(=O)O)cc2)o1`, the half-maximal inhibitory concentration (IC50) was 25.3 µM and 26 µM.

`COc1nc(N[C@@H](c2ccc3c(c2)OCCO3)C(C)C)c2cc[nH]c2n1`: the IC50 is over 99.5 µM.

Regarding `O=C(O)[C@@H](CC(F)F)Nc1ncnc2[nH]ccc12`, the IC50 was 80.7 µM and 94.4 µM.

As to `O=C(O)[C@@H](Nc1ncnc2[nH]ccc12)C1CC1`, the IC50 was 72.2 µM and 72 µM.

Take `O=C(O)[C@H]1C[C@H](O)CN1c1ncnc2[nH]ccc12`: the IC50 is over 99.5 µM.

For the molecule `O=C(Nc1cccc2c(C(=O)N[C@H]3c4ccccc4C[C@H]3C(=O)O)c[nH]c12)NC1CC1`, the 50% inhibitory concentration (IC50) was 7.83 µM and 6.58 µM.

Regarding `CC(C)[C@@H](Nc1ncnc2[nH]ccc12)c1cccc(C(F)(F)F)c1`, the IC50 was 83.2 µM and 77.6 µM.

As for `COc1ccc([C@@H]2CN(C(=O)c3ncnc4[nH]ccc34)C[C@H]2C(=O)O)cc1`, the IC50 was over 99.5 µM.

Molecule `O=C(O)[C@@H]1[C@@H](c2ccccc2)CCN1c1ncnc2[nH]ccc12` registered an IC50 of over 99.5 µM.

For the molecule `CC(C)[C@@H](Nc1ncnc2[nH]cc(C(=O)N(C)C)c12)c1ccc2c(c1)OCCO2`, the IC50 is 1.95 µM and 1.97 µM.

Take `CNc1nc(N[C@@H](c2ccc3c(c2)OCCO3)C(C)C)c2cc[nH]c2n1`: the half-maximal inhibitory concentration (IC50) is over 99.5 µM.

`Cc1nn(CC(C)C)c(Cl)c1[C@@H]1CCCN1c1ncnc2[nH]ccc12`: the IC50 was over 99.5 µM.

The molecule `CC(C)[C@@H](Nc1nc(N(C)C)nc2[nH]ccc12)c1ccc2c(c1)OCCO2` displayed a half-maximal inhibitory concentration (IC50) of over 99.5 µM.

`O=C(Nc1ccc(C(=O)N[C@@H]2c3ccccc3C[C@@H]2C(=O)O)cc1)c1ccc2c(c1)OCCO2`: the IC50 is over 99.5 µM.

On to `CC(C)[C@@H](Nc1ncnc2[nH]cc(C#N)c12)c1ccc2c(c1)OCCO2`, for which the IC50 is 4.36 µM and 3.82 µM.

For the molecule `COC(=O)c1cc2c(N[C@@H](c3ccc4c(c3)OCCO4)C(C)C)ncnc2[nH]1`, the IC50 was 5.31 µM and 6.5 µM.

`COc1ccc([C@@H](Cc2nn[nH]n2)NC(=O)c2nc(C)nc3[nH]ccc23)cc1`: the IC50 was 1.84 µM and 1.65 µM.

For `O[C@@H]1CCCC[C@@H]1Nc1ncnc2[nH]ccc12`, the IC50 was > 99.5 µM and 95.3 µM.

In the case of `CNC(=O)c1cccc([C@@H](CC(=O)O)NC(=O)c2ncnc3[nH]ccc23)c1`, the IC50 was 18.7 µM and 17.4 µM.

In the case of `CC(C)[C@@H](Nc1ncnc2[nH]ccc12)c1ccc2c(c1)C(=O)NCC2`, the IC50 is 2.25 µM and 2.44 µM.

For the molecule `O=C(O)[C@H](CC1CCCCC1)Nc1ncnc2[nH]ccc12`, the half-inhibitory concentration (IC50) was 92.3 µM and 91.8 µM.

Take `COc1ccc([C@@H](Cc2nn[nH]n2)NC(=O)c2nc(OC)nc3[nH]ccc23)cc1`: the IC50 was 4.55 µM and 4.97 µM.

Regarding `O=C(O)C[C@@H](NC(=O)c1ncnc2[nH]c3cc(F)ccc3c12)c1ccc(Br)cc1`, the IC50 is 0.992 µM and 1.01 µM.

Molecule `CC(C)[C@@H](Nc1ncc2c(n1)CCCC2)c1ccc2c(c1)OCCO2` had an IC50 of over 99.5 µM.

As to `CC(C)[C@@H](Nc1cc(-c2cc[nH]n2)ncn1)c1ccc2c(c1)OCCO2`, the IC50 is over 99.5 µM.

Regarding `CC(C)[C@@H](Nc1cnc(C(=O)O)cn1)c1ccc2c(c1)OCCO2`, the IC50 is over 99.5 µM.

Turning to `Cc1nnc(Nc2ccc(C(=O)N[C@@H]3c4cccc(O)c4C[C@@H]3C(=O)O)cc2)o1`, the IC50 was 7.16 µM and 7.38 µM.

`c1nc(N2CCC[C@@H]2c2ccc3c(c2)OCCO3)c2cc[nH]c2n1` came in with an IC50 of over 99.5 µM.

For `CNc1cccc([C@@H](CC(=O)O)NC(=O)c2ncnc3[nH]ccc23)c1`, the IC50 is 66.3 µM and 25.7 µM.

As to `COc1ccc(C(=O)Nc2ccc(C(=O)N[C@@H]3c4ccccc4C[C@@H]3C(=O)O)cc2)cc1S(=O)(=O)NCCN1CCCC1`, the half-maximal inhibitory concentration (IC50) is over 99.5 µM.

Turning to `CC(C)[C@@H](Nc1ncnc2[nH]ccc12)c1ccc2c(c1)CCNC2=O`, the IC50 was 15.3 µM and 15 µM.

For `O=C(O)C[C@@H](NC(=O)c1ccc(NC(=O)NC2CC2)cc1)c1cccc(C(F)F)c1`, the IC50 is 76.4 µM and 72.3 µM.

Take `O=C(Nc1ccc(C(=O)N[C@@H]2c3ccccc3C[C@@H]2C(=O)O)cc1)c1ccc(C(=O)NC2CC2)cc1`: the IC50 was over 99.5 µM.

Turning to `CC(C)[C@H](Nc1ncnc2[nH]ccc12)c1ccc2c(c1)NC(=O)CO2`, the IC50 is over 99.5 µM.

`Cc1nnc(Nc2ccc(C(=O)N[C@H]3c4cccc(O)c4C[C@H]3C(=O)O)cc2)o1` showed an IC50 of over 99.5 µM.

Regarding `COc1ccc([C@@H](CC(=O)O)NC(=O)c2cc3cccc(NC(=O)NC4CC4)c3[nH]2)cc1`, the IC50 is over 99.5 µM.

As for `CC(=O)Nc1cccc([C@@H](CC(=O)O)NC(=O)c2ncnc3[nH]ccc23)c1`, the IC50 is 25.8 µM and > 12.4 µM and 20.7 µM.

In turn, `O=C(O)[C@H]1C[C@@H](F)CN1c1ncnc2[nH]ccc12` had an IC50 of over 99.5 µM.

Consider `c1nc(N[C@@H](C2CC2)[C@@H]2CCCOC2)c2cc[nH]c2n1`, for which the IC50 is over 99.5 µM.

On to `Cc1nnc(Nc2ccc(C(=O)N[C@H]3c4cccc(O)c4C[C@@H]3C(=O)O)cc2)o1`, for which the IC50 was over 99.5 µM.

With `CC(C)c1nc(N[C@@H](c2ccc3c(c2)OCCO3)C(C)C)c2cc[nH]c2n1`, the IC50 was over 99.5 µM.

Take `CO[C@@H]1C[C@@H](C(=O)O)N(c2ncnc3[nH]ccc23)C1`: the IC50 was over 99.5 µM.

For `CC(C)[C@@H](Nc1ncnc2[nH]ccc12)c1ccncc1`, the IC50 was > 12.4 µM and 34 µM.

For `N#Cc1ccc(C(=O)Nc2ccc(C(=O)N[C@@H]3c4ccccc4C[C@@H]3C(=O)O)cc2)cc1`, the IC50 was over 99.5 µM.

For the molecule `O=C(Nc1ccc(C(=O)N[C@@H]2c3ccccc3C[C@@H]2C(=O)O)cc1)c1ccc(N2CCC(O)CC2)cc1`, the IC50 was over 99.5 µM.

For the molecule `CC(C)[C@@H](Nc1ncnc2[nH]ccc12)c1ccc2c(c1)N(C)CCO2`, the IC50 is 27.8 µM and 31.7 µM.

`O=C(O)[C@H](CC1CC1)Nc1ncnc2[nH]ccc12` gave an IC50 of over 99.5 µM.

With `CC(C)[C@@H](Nc1ncnc2[nH]cc(S(N)(=O)=O)c12)c1ccc2c(c1)OCCO2`, the IC50 is 3.43 µM and 3.07 µM.

`c1nc(N[C@@H](c2ccc3c(c2)OCCO3)C2CNC2)c2cc[nH]c2n1` registered an IC50 of over 99.5 µM.

For `COc1ccc([C@@H](CC(=O)O)NC(=O)c2ccc(NC(=O)NC3CC3)cc2)cc1`, the IC50 is 57.5 µM and 37.8 µM.

On to `COc1cccc([C@@H](Nc2ncnc3[nH]ccc23)C(C)C)c1`, for which the IC50 was 25.7 µM and 39.9 µM.

In the case of `O[C@H]1CCCC[C@@H]1Nc1ncnc2[nH]ccc12`, the IC50 was 55.4 µM and 64.7 µM.

As to `CC(C)[C@@H](Nc1ncnc2[nH]ccc12)C(=O)O`, the IC50 is 15.4 µM and 16.8 µM and 20.9 µM and 20.6 µM.

`CNc1nc(C(=O)N[C@@H](Cc2nn[nH]n2)c2ccc(OC)cc2)c2ccnc-2[nH]1`: the IC50 was 45.7 µM and 44.7 µM.

`CC(C)[C@@H](Nc1ncnc2[nH]cc(Br)c12)c1ccc2c(c1)OCCO2`: the IC50 was 10.1 µM and 11.8 µM.

`CC(C)[C@@H](Nc1nc(C2CC2)nc2[nH]ccc12)c1ccc2c(c1)OCCO2`: the 50% inhibitory concentration (IC50) was over 99.5 µM.

As to `COc1ccc([C@H](CC(=O)O)NC(=O)c2ccc(NC(=O)NC3CC3)cc2)cc1`, the IC50 is 54.1 µM and 51.2 µM and 38.1 µM.

The molecule `CCC[C@H](Nc1ncnc2[nH]ccc12)C(=O)O` came in with an IC50 of over 99.5 µM.

Molecule `c1nc(N[C@@H](c2ccc3c(c2)OCCO3)[C@@H]2CCN2)c2cc[nH]c2n1` came in with an IC50 of over 99.5 µM.

`O=C(O)[C@@H]1C[C@@H](O)CN1c1ncnc2[nH]ccc12`: the IC50 is over 99.5 µM.

In the case of `CC(C)[C@@H](Nc1ncnc2[nH]ccc12)c1ccc(C(F)(F)F)cc1`, the half-inhibitory concentration (IC50) is 46.2 µM and 37.2 µM.

Consider `c1nc(N[C@@H](c2ccc3c(c2)OCCO3)C2CCCC2)c2cc[nH]c2n1`, for which the IC50 is 2.23 µM and 2.25 µM.

Consider `O=C(O)[C@@H](Nc1ncnc2[nH]ccc12)C1CC(F)(F)C1`, for which the concentration for half-maximal inhibition (IC50) was over 99.5 µM.

The values are drawn from ChEMBL document CHEMBL5441456, “ASAP - SARS-CoV-2 nsp3 macrodomain dose response” (2024).
